In the supplement of paper PMC10883282:
± gives the standard deviation of the averaged measurements.

Experiments:
Assay in all cases: relative viability vs DMSO control (72 h) (fraction); higher = more viable cells
A204 = test system: A204
In short: (§1)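 A 5 µM positive control and 0.1% DMSO vehicle ran alongside sarcoma cell lines seeded in 384-well plates to reach 80–90% confluence. Serially diluted compound, 2.5 µl from source plates of 10 mM to 0.0002 mM, was added after 24 h, and the plates were held 72 h at 37 °C, 5% CO2. Relative viability was worked out from ATPLite readings as percent growth averaged over up to triplicate wells. The values were rescaled so that 1 is full and 0 is none.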

G401 = test system: G401
In short: as §1

HS729 = test system: HS729
In short: as §1

KHOS-240S = test system: KHOS-240S
In short: as §1

MES-SA = test system: MES-SA
In short: as §1

RD = test system: RD
In short: as §1

SK-ES-1 = test system: SK-ES-1
In short: as §1

SK-LMS-1 = test system: SK-LMS-1
In short: as §1

SW1353 = test system: SW1353
In short: as §1

SW872 = test system: SW872
In short: as §1

SW982 = test system: SW982
In short: as §1

VA-ES-BJ = test system: VA-ES-BJ
In short: as §1

C[C@H]1Oc2cc(cnc2N)-c2c(nn(C)c2C#N)CN(C)C(=O)c2ccc(F)cc21 [Lorlatinib]
Conditions	relative viability
A204, 0.00017 µM	1.08 ± 0.016
A204, 0.00051 µM	1.11 ± 0.024
A204, 0.00152 µM	1.1 ± 0.054
A204, 0.00457 µM	1.13 ± 0.024
A204, 0.01372 µM	1.1 ± 0.027
A204, 0.04115 µM	1.07 ± 0.083
A204, 0.1235 µM	1.05 ± 0.039
A204, 0.3704 µM	1.05 ± 0.034
A204, 1.111 µM	1.01 ± 0.046
A204, 3.333 µM	0.981 ± 0.044
A204, 10 µM	0.988 ± 0.049
G401, 0.00017 µM	1.05 ± 0.047
G401, 0.00051 µM	1.05 ± 0.037
G401, 0.00152 µM	1.04 ± 0.011
G401, 0.00457 µM	1.03 ± 0.016
G401, 0.01372 µM	1.06 ± 0.013
G401, 0.04115 µM	1.02 ± 0.063
G401, 0.1235 µM	0.968 ± 0.0083
G401, 0.3704 µM	0.984 ± 0.025
G401, 1.111 µM	1 ± 0.052
G401, 3.333 µM	1.01 ± 0.047
G401, 10 µM	0.916 ± 0.063
HS729, 0.00017 µM	1.06 ± 0.025
HS729, 0.00051 µM	0.956 ± 0.017
HS729, 0.00152 µM	0.897 ± 0.039
HS729, 0.00457 µM	0.958 ± 0.077
HS729, 0.01372 µM	0.878 ± 0.019
HS729, 0.04115 µM	0.886 ± 0.024
HS729, 0.1235 µM	0.829 ± 0.027
HS729, 0.3704 µM	0.899 ± 0.068
HS729, 1.111 µM	0.803 ± 0.089
HS729, 3.333 µM	0.781 ± 0.037
HS729, 10 µM	0.662 ± 0.039
KHOS-240S, 0.00017 µM	1.06 ± 0.045
KHOS-240S, 0.00051 µM	1.08 ± 0.052
KHOS-240S, 0.00152 µM	1.07 ± 0.051
KHOS-240S, 0.00457 µM	1.07 ± 0.096
KHOS-240S, 0.01372 µM	1.06 ± 0.044
KHOS-240S, 0.04115 µM	1.01 ± 0.069
KHOS-240S, 0.1235 µM	1.01 ± 0.072
KHOS-240S, 0.3704 µM	1.01 ± 0.011
KHOS-240S, 1.111 µM	0.969 ± 0.023
KHOS-240S, 3.333 µM	0.915 ± 0.087
KHOS-240S, 10 µM	0.865 ± 0.038
MES-SA, 0.00017 µM	0.955 ± 0.024
MES-SA, 0.00051 µM	0.987 ± 0.037
MES-SA, 0.00152 µM	0.943 ± 0.04
MES-SA, 0.00457 µM	0.929 ± 0.013
MES-SA, 0.01372 µM	0.922 ± 0.026
MES-SA, 0.04115 µM	0.923 ± 0.033
MES-SA, 0.1235 µM	0.911 ± 0.027
MES-SA, 0.3704 µM	0.919 ± 0.023
MES-SA, 1.111 µM	0.897 ± 0.026
MES-SA, 3.333 µM	0.892 ± 0.058
MES-SA, 10 µM	0.879 ± 0.052
RD, 0.00017 µM	1.09 ± 0.057
RD, 0.00051 µM	1.11 ± 0.035
RD, 0.00152 µM	1.11 ± 0.064
RD, 0.00457 µM	1.09 ± 0.044
RD, 0.01372 µM	1.12 ± 0.075
RD, 0.04115 µM	1.07 ± 0.069
RD, 0.1235 µM	1.02 ± 0.054
RD, 0.3704 µM	1 ± 0.032
RD, 1.111 µM	0.948 ± 0.045
RD, 3.333 µM	0.838 ± 0.016
RD, 10 µM	0.668 ± 0.035
SK-ES-1, 0.00017 µM	1.02 ± 0.04
SK-ES-1, 0.00051 µM	1.03 ± 0.081
SK-ES-1, 0.00152 µM	1.06 ± 0.021
SK-ES-1, 0.00457 µM	1.05 ± 0.044
SK-ES-1, 0.01372 µM	1.01 ± 0.045
SK-ES-1, 0.04115 µM	1.01 ± 0.02
SK-ES-1, 0.1235 µM	1.023 ± 0.0029
SK-ES-1, 0.3704 µM	1.03 ± 0.021
SK-ES-1, 1.111 µM	1 ± 0.047
SK-ES-1, 3.333 µM	0.89 ± 0.016
SK-ES-1, 10 µM	0.571 ± 0.058
SK-LMS-1, 0.00017 µM	1.12 ± 0.06
SK-LMS-1, 0.00051 µM	1.095 ± 0.0097
SK-LMS-1, 0.00152 µM	1.081 ± 0.0044
SK-LMS-1, 0.00457 µM	1.09 ± 0.057
SK-LMS-1, 0.01372 µM	1.1 ± 0.049
SK-LMS-1, 0.04115 µM	1.09 ± 0.082
SK-LMS-1, 0.1235 µM	1.07 ± 0.071
SK-LMS-1, 0.3704 µM	1.02 ± 0.038
SK-LMS-1, 1.111 µM	1.02 ± 0.041
SK-LMS-1, 3.333 µM	1 ± 0.052
SK-LMS-1, 10 µM	0.933 ± 0.015
SW872, 0.00017 µM	1.08 ± 0.012
SW872, 0.00051 µM	1.05 ± 0.034
SW872, 0.00152 µM	1.04 ± 0.044
SW872, 0.00457 µM	1.04 ± 0.07
SW872, 0.01372 µM	1 ± 0.081
SW872, 0.04115 µM	0.956 ± 0.04
SW872, 0.1235 µM	0.921 ± 0.079
SW872, 0.3704 µM	0.838 ± 0.083
SW872, 1.111 µM	0.798 ± 0.045
SW872, 3.333 µM	0.718 ± 0.05
SW872, 10 µM	0.658 ± 0.034
SW982, 0.00017 µM	1.012 ± 0.001
SW982, 0.00051 µM	1.04 ± 0.04
SW982, 0.00152 µM	1.02 ± 0.028
SW982, 0.00457 µM	1.04 ± 0.017
SW982, 0.01372 µM	1.03 ± 0.033
SW982, 0.04115 µM	1.03 ± 0.048
SW982, 0.1235 µM	0.895 ± 0.061
SW982, 0.3704 µM	0.826 ± 0.087
SW982, 1.111 µM	0.762 ± 0.026
SW982, 3.333 µM	0.768 ± 0.054
SW982, 10 µM	0.64 ± 0.054
SW1353, 0.00017 µM	1.04 ± 0.027
SW1353, 0.00051 µM	1.06 ± 0.026
SW1353, 0.00152 µM	1.027 ± 0.01
SW1353, 0.00457 µM	0.992 ± 0.035
SW1353, 0.01372 µM	0.985 ± 0.022
SW1353, 0.04115 µM	1 ± 0.04
SW1353, 0.1235 µM	0.976 ± 0.045
SW1353, 0.3704 µM	0.889 ± 0.068
SW1353, 1.111 µM	0.851 ± 0.037
SW1353, 3.333 µM	0.839 ± 0.046
SW1353, 10 µM	0.792 ± 0.023
VA-ES-BJ, 0.00017 µM	1.056 ± 0.0097
VA-ES-BJ, 0.00051 µM	1.08 ± 0.013
VA-ES-BJ, 0.00152 µM	1.05 ± 0.032
VA-ES-BJ, 0.00457 µM	1.03 ± 0.042
VA-ES-BJ, 0.01372 µM	1.02 ± 0.033
VA-ES-BJ, 0.04115 µM	0.989 ± 0.041
VA-ES-BJ, 0.1235 µM	0.989 ± 0.034
VA-ES-BJ, 0.3704 µM	0.956 ± 0.048
VA-ES-BJ, 1.111 µM	0.966 ± 0.048
VA-ES-BJ, 3.333 µM	0.955 ± 0.044
VA-ES-BJ, 10 µM	0.87 ± 0.039
